These results are taken from patent US20220396567A1, “SUBSTITUTED PYRIMIDINE FOR THE TREATMENT AND PROPHYLAXIS OF HEPATITIS B VIRUS INFECTION” (Hoffmann-La Roche Inc., priority 2019, published 2022).

For this experiment, the system named is HBV. The experiment in a line: Cryopreserved primary human hepatocytes (PHH) HBV infection assay, extracellular HBsAg by CLIA. Format: cell-based. Particulars: Hepatitis B virus, Hepatocyte, 216 h; HBV-infected cryopreserved PHH; extracellular HBsAg at 9 days post-compound treatment; 4 parameter logistic curve fit. As to the method:
This assay is used to confirm the anti-HBV effect of the compounds in HBV PHH infection assay. Cryopreserved PHH (BioreclamationIVT, Lot YJM) was thawed at 37° C. and gently transferred into pre-warmed InVitroGRO HT medium (BioreclamationIVT, Cat. S03317). The mixture was centrifuged at 70 relative centrifugal force (RCF) for 3 min at RT, and the supernatant was discarded. Pre-warmed InVitroGRO CP medium (BioreclamationIVT, Cat #S03316) was added to the cell pellet to gently re-suspend cells. The cells were seeded at the density of 5.8×10^4 cells per well to collagen I coated 96-well plate (Gibco, Cat. A1142803) with the InVitroGRO CP medium. All plates were incubated at 37° C. with 5% CO2 and 85% humidity.
At 20 hrs after plating, the medium was changed to PHH culture medium (Dulbecco's Modified Eagle Medium (DMEM)/F12 (1:1) (Gibco, Cat. 11320-033), 10% fetal bovine serum (Gibco Cat. 10099141), 100 U/mL penicillin, 100 μg/mL streptomycin (Gibco, Cat. 151401-122), […] (Invitrogen Cat. PHG0311L), 20 ng/mL dexamethasone (Sigma, Cat. D4902) and 250 ng/mL human recombinant insulin (Gibco, Cat. 12585-014)). And the cells were incubated at 37° C. with 5% CO2 and 85% humidity for 4 hrs. The medium was then changed to pre-warmed PHH culture medium containing 4% polyethylene glycol (PEG) MW8000 (Sigma, Cat. P1458-50 ML) and 1% DMSO (Sigma, Cat. D2650). 5.8×10^6 genomic equivalents of HBV were added into the medium.
At 24 hrs post-infection, the cells were gently washed with PBS and refreshed with PHH culture medium supplemented with 1% DMSO, and 0.25 mg/mL Matrix gel (Corning, Cat. 356237) at 200 μL per well. All plates were immediately placed in at 37° C. CO2 incubator.
24 hrs later, serial dilutions of compounds made with DMSO were further diluted with the same culture medium (PHH culture medium supplemented with 1% DMSO and 0.25 mg/mL Matrix gel as described above) before they were added to the cells to reach desired final compound concentrations and 1% DMSO concentration. The medium containing the compounds were refreshed every three days.
At 9 days post-compound treatment, extracellular HBsAg level were measured with Chemiluminescence Immuno Assay (CLIA) kit (Autobio, HBsAg Quantitative CLIA).
HBsAg IC50 was derived from the dose-response curve using 4 parameter logistic curve fit method. The compounds of formula (I) have HBsAg IC50<20 μM, particularly <1 μM.

`CN(C)c1nc(NCc2cccc(C(F)(F)F)c2)c(C#N)c(-c2ccco2)n1` [Example 16, 2-(dimethylamino)-4-(2-furyl)-6-[[3-(trifluoromethyl)phenyl]methylamino]pyrimidine-5-carbonitrile] displayed an IC50 of 6.75 µM.

`Nc1nc(NCc2ccc(Cl)cc2)c(C(=O)O)c(-c2ccco2)n1` [Example 37, 2-amino-4-[(4-chlorophenyl)methylamino]-6-(2-furyl)pyrimidine-5-carboxylic Acid] came in with an IC50 of 2.93 µM. The same measure for `COc1c(NCc2cccc(C(F)(F)F)c2)nc(N)nc1-c1ccco1` [Example 35, 6-(2-furyl)-5-methoxy-N4-[[3-(trifluoromethyl)phenyl]methyl]pyrimidine-2,4-diamine]: 7.85 µM; for `COCCNc1nc(NC2(c3cccc(C(F)(F)F)c3)CC2)c(C(=O)O)c(-c2ccco2)n1` [Example 58, 4-(2-furyl)-2-(2-methoxyethylamino)-6-[[1-[3-(trifluoromethyl)phenyl]cyclopropyl]amino]pyrimidine-5-carboxylic Acid]: 5.96 µM. The same measure for `CN(C)c1nc(NCc2ccccc2N)cc(-c2ccco2)n1` [Example 33, N4-[(2-aminophenyl)methyl]-6-(2-furyl)-N2,N2-dimethyl-pyrimidine-2,4-diamine]: 7.58 µM; for `CCOC(=O)c1c(NCc2cccc(C(F)(F)F)c2)nc(NCC(C)C)nc1-c1ccco1` [Example 49, Ethyl 4-(2-furyl)-2-(isobutylamino)-6-[[3-(trifluoromethyl)phenyl]methylamino]pyrimidine-5-carboxylate]: 5.35 µM. Take `N#Cc1c(NCC(F)Cc2ccccc2Cl)nc(N)nc1-c1ccco1` (stereo not shown) [Example 4, 2-amino-4-[[3-(2-chlorophenyl)-2-fluoro-propyl]amino]-6-(2-furyl)pyrimidine-5-carbonitrile]: the IC50 was determined as 11.4 µM. The same measure for `CCOC(=O)c1c(NCc2cccc(C(F)(F)F)c2)nc(SC)nc1-c1ccco1` [Example 45, Ethyl 4-(2-furyl)-2-methylsulfanyl-6-[[3-(trifluoromethyl)phenyl]methylamino]pyrimidine-5-carboxylate]: 8.16 µM; for `N#Cc1c(NCc2cccc(C(F)(F)F)c2)nc(NCC(F)(F)F)nc1-c1ccco1` [Example 13, 4-(2-furyl)-2-(2,2,2-trifluoroethylamino)-6-[[3-(trifluoromethyl)phenyl]methylamino]pyrimidine-5-carbonitrile]: 3.93 µM; for `COCCNc1nc(NCc2cccc(C(F)(F)F)c2)c(C(=O)O)c(-c2ccco2)n1` [Example 46, 4-(2-furyl)-2-(2-methoxyethylamino)-6-[[3-(trifluoromethyl)phenyl]methylamino]pyrimidine-5-carboxylic Acid]: 4.31 µM. `O=C(O)c1c(NCc2cccc(C(F)(F)F)c2)nc(N2CC3(CCC3)C2)nc1-c1ccco1` [Example 48, 2-(2-azaspiro[3.3]heptan-2-yl)-4-(2-furyl)-6-[[3-(trifluoromethyl)phenyl]methylamino]pyrimidine-5-carboxylic Acid] gave an IC50 of 6.37 µM. The same measure for `Cc1nc(NCc2ccccc2)c(C#N)c(-c2ccco2)n1` [Example 23, 4-(benzylamino)-6-(2-furyl)-2-methyl-pyrimidine-5-carbonitrile]: 6.89 µM; for `CS(=O)(=O)c1ccccc1C1(Nc2nc(N)nc(-c3ccco3)c2C#N)CC1` [Example 7, 2-amino-4-(2-furyl)-6-[[1-(2-methylsulfonylphenyl)cyclopropyl]amino]pyrimidine-5-carbonitrile]: 1.78 µM; for `Cc1nc(NC2(c3ccccc3S(C)(=O)=O)CC2)c(C#N)c(-c2ccco2)n1` [Example 22, 4-(2-furyl)-2-methyl-6-[[1-(2-methylsulfonylphenyl)cyclopropyl]amino]pyrimidine-5-carbonitrile]: 2.73 µM. Then `CC(Nc1cc(-c2ccco2)nc(N(C)C)n1)c1cccc(C(F)(F)F)c1` (stereo not shown) [Example 32, 6-(2-furyl)-N2,N2-dimethyl-N4-[1-[3-(trifluoromethyl)phenyl]ethyl]pyrimidine-2,4-diamine], with 3.49 µM. Compound `COCCCNc1nc(NCc2cccc(C(F)(F)F)c2)c(C(=O)O)c(-c2ccco2)n1` [Example 51, 4-(2-furyl)-2-(3-methoxypropylamino)-6-[[3-(trifluoromethyl)phenyl]methylamino]pyrimidine-5-carboxylic Acid] came in with an IC50 of 9.61 µM. Then `N#Cc1c(NC2CCCC2)nc(N)nc1-c1ccco1` [Example 9, 2-amino-4-(cyclopentylamino)-6-(2-furyl)pyrimidine-5-carbonitrile], with 8.68 µM.

As to `COc1ccc(Br)c(CNc2nc(C)nc(-c3ccco3)c2C#N)c1OC` [Example 20, 4-[(6-bromo-2,3-dimethoxy-phenyl)methylamino]-6-(2-furyl)-2-methyl-pyrimidine-5-carbonitrile], the IC50 worked out at 2.66 µM.

Compound `CCOC(=O)c1c(NCc2cccc(C(F)(F)F)c2)nc(N2CC3(CCC3)C2)nc1-c1ccco1` [Example 47, Ethyl 2-(2-azaspiro[3.3]heptan-2-yl)-4-(2-furyl)-6-[[3-(trifluoromethyl)phenyl]methylamino]pyrimidine-5-carboxylate] came in with an IC50 of 3.26 µM.

As to `N#Cc1c(NCC2CCCC2)ncnc1-c1ccco1` [Example 29, 4-(cyclopentylmethylamino)-6-(2-furyl)pyrimidine-5-carbonitrile], the IC50 was determined as 2.61 µM.

Turning to `CCCCOc1nc(NCc2cccc(C(F)(F)F)c2)c(C#N)c(-c2ccco2)n1` [Example 19, 2-butoxy-4-(2-furyl)-6-[[3-(trifluoromethyl)phenyl]methylamino]pyrimidine-5-carbonitrile], 2.42 µM corresponded to half-maximal inhibition (IC50). Then `CC1(C)CC(CNc2nc(N)nc(-c3ccco3)c2C#N)CC(C)(C)O1` [Example 3, 2-amino-4-(2-furyl)-6-[(2,2,6,6-tetramethyltetrahydropyran-4-yl)methylamino]pyrimidine-5-carbonitrile], with 1.67 µM; and `CCOC(=O)c1c(NCc2c(Br)ccc(OC)c2OC)nc(C(C)C)nc1-c1ccco1` [Example 62, Ethyl 4-[(6-bromo-2,3-dimethoxy-phenyl)methylamino]-6-(2-furyl)-2-isopropyl-pyrimidine-5-carboxylate], with 10.2 µM; and `CCNc1nc(NCc2cccc(C(F)(F)F)c2)c(C#N)c(-c2ccco2)n1` [Example 14, 2-(ethylamino)-4-(2-furyl)-6-[[3-(trifluoromethyl)phenyl]methylamino]pyrimidine-5-carbonitrile], with 2.76 µM. Then `CSc1nc(NCc2cccc(C(F)(F)F)c2)c(C#N)c(-c2ccco2)n1` [Example 11, 4-(2-furyl)-2-methylsulfanyl-6-[[3-(trifluoromethyl)phenyl]methylamino]pyrimidine-5-carbonitrile], with 2.35 µM.

With `Cc1nc(NCc2ccc(OC(C)C)c(Br)c2)c(C#N)c(-c2ccco2)n1` [Example 21, 4-[(3-bromo-4-isopropoxy-phenyl)methylamino]-6-(2-furyl)-2-methyl-pyrimidine-5-carbonitrile], the IC50 was 6.66 µM.

The compound `N#Cc1c(NCc2ccccc2N)ncnc1-c1ccco1` [Example 31, 4-[(2-aminophenyl)methylamino]-6-(2-furyl)pyrimidine-5-carbonitrile] gave an IC50 of 0.27 µM. `Nc1nc(NCc2ccccc2N)cc(-c2cccs2)n1` [Example 36, N4-[(2-aminophenyl)methyl]-6-(2-thienyl)pyrimidine-2,4-diamine] returned a half-maximal inhibitory concentration (IC50) of 6.62 µM.

On to `Nc1nc(NCc2cccc(C(F)(F)F)c2)c(C(=O)N2CCCCC2)c(-c2ccco2)n1` [Example 54, [2-amino-4-(2-furyl)-6-[[3-(trifluoromethyl)phenyl]methylamino]pyrimidin-5-yl]-(1-piperidyl)methanone], for which the IC50 is 6.59 µM. Consider `Cc1ccccc1CNc1nc(N)nc(-c2ccco2)c1C(=O)O` [Example 39, 2-amino-4-(2-furyl)-6-(o-tolylmethylamino)pyrimidine-5-carboxylic Acid], for which the 50% inhibitory concentration (IC50) was 9.07 µM. In turn, `Nc1nc(NCc2cccc(C(F)(F)F)c2)c(C(=O)N2CCC2)c(-c2ccco2)n1` [Example 52, [2-amino-4-(2-furyl)-6-[[3-(trifluoromethyl)phenyl]methylamino]pyrimidin-5-yl]-(azetidin-1-yl)methanone] returned an IC50 of 7.94 µM.

Usually IC50 stands for the concentration that gives 50% inhibition.
